# Key:
# lipoamide = compound: NC(=O)CCCCC1CCSS1 [lipoamide]; experiment: thermal stability z-score vs DMSO; higher = more thermally stabilized by treatment; conditions: HeLa, lipoamide concentration 100 µM
# Description: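 Cellular thermal proteome profiling in HeLa cells. Cells were treated with 100 µM lipoamide for 1 h, with or without 1 mM arsenate for a further 1 h, then heated to ten temperatures (37-66.3 °C), and soluble protein was quantified by TMT mass spectrometry relative to 0.1% DMSO controls. The thermal stability score (sum of log2 fold changes minus the abundance score) was transformed to a z-score; mean of n = 3 experiments.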
# potassium arsenate = compound: O=[As]([O-])(O)O.[K+] [potassium arsenate]; experiment: as above; conditions: HeLa; arsenate concentration 1 mM
# Description: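 Cellular thermal proteome profiling in HeLa cells treated with 1 mM arsenate for 1 h (DMSO pretreatment), heated to ten temperatures (37-66.3 °C). Soluble protein was quantified by TMT mass spectrometry relative to DMSO controls; the thermal stability score was transformed to a z-score; mean of n = 3 experiments.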
# [1] = arsenate co-treatment: 1 mM arsenate 1 h
# 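Further: each temperature applied for 3 min, abundance score taken as mean log2 fold change at the two lowest temperatures, z-score obtained by mean subtraction and division by SD.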
# UniProt Q8N806, sequence (Q8N806 whole entry): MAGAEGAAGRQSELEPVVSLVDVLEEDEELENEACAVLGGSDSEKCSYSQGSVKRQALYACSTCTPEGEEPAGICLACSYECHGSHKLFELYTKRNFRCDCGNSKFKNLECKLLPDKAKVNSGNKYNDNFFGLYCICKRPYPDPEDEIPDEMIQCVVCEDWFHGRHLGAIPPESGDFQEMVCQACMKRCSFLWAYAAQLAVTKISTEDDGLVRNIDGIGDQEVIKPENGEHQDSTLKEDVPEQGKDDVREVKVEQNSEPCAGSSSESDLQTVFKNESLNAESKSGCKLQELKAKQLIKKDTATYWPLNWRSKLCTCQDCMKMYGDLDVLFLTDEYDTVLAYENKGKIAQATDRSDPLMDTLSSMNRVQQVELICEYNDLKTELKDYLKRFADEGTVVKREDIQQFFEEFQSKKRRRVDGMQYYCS
# UniProt Q15262, sequence (Q15262 whole entry): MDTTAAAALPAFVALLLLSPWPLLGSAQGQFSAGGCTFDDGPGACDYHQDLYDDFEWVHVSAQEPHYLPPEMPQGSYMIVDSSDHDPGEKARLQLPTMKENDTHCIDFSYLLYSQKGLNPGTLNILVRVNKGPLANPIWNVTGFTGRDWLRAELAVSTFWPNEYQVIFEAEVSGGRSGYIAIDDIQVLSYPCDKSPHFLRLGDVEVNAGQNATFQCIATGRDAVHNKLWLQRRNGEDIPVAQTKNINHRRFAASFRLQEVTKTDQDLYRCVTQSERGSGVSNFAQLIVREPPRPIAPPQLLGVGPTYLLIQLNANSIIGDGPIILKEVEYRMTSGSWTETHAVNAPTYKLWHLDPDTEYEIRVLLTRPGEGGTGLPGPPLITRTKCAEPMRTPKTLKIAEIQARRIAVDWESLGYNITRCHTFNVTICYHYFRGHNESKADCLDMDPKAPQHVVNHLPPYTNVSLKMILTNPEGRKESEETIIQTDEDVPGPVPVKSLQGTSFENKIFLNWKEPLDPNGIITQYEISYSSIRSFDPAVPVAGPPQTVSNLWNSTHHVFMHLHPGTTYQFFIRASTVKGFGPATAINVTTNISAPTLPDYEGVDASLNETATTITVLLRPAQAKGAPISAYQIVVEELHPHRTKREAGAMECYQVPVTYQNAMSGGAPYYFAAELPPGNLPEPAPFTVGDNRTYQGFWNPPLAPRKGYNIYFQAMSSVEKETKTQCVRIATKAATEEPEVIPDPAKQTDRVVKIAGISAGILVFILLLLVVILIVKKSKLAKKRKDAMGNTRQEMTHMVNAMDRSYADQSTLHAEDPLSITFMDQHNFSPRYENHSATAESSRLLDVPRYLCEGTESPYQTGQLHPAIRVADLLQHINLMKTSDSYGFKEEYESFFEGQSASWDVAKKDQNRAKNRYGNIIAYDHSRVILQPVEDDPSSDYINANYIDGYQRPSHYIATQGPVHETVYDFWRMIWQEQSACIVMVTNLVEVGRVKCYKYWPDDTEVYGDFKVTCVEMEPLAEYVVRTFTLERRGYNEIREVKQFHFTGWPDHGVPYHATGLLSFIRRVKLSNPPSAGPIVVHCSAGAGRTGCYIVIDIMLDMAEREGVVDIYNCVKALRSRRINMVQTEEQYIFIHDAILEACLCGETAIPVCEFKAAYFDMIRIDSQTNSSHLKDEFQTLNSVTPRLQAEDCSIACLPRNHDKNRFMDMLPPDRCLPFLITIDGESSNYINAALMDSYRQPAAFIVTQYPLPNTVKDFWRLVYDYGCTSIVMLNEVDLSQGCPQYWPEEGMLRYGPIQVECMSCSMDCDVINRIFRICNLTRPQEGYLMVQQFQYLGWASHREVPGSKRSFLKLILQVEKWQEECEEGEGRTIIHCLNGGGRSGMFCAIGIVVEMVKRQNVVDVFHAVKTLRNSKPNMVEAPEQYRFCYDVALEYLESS
# UniProt Q96B70, sequence (Q96B70 whole entry): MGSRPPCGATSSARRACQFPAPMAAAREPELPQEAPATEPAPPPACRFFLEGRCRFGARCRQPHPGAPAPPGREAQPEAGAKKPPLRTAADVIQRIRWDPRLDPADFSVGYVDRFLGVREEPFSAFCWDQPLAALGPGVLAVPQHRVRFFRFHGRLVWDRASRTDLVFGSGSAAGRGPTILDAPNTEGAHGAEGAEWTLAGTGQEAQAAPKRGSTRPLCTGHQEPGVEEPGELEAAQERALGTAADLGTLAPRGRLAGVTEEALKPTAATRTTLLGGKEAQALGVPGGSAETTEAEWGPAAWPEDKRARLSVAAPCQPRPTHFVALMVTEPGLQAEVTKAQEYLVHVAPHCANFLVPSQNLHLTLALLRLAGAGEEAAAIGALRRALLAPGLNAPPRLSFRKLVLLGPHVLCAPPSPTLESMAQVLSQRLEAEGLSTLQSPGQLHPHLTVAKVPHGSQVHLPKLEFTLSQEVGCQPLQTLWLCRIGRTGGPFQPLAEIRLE
# UniProt O15460, sequence (O15460 whole entry): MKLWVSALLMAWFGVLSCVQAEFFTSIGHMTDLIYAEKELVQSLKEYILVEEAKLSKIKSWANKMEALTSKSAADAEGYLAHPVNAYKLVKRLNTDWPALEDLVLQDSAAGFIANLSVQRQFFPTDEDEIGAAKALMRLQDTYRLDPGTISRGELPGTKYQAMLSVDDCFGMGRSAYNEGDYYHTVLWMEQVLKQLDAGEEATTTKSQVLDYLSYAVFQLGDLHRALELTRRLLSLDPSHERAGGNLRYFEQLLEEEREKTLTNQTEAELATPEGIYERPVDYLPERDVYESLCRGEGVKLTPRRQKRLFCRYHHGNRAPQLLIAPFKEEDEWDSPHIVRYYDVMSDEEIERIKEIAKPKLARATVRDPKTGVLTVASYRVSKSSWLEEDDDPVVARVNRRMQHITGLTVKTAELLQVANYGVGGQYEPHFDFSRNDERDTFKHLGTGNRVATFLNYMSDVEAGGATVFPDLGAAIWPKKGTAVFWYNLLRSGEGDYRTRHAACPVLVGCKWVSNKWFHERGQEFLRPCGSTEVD
# UniProt P28799, sequence (P28799 whole entry): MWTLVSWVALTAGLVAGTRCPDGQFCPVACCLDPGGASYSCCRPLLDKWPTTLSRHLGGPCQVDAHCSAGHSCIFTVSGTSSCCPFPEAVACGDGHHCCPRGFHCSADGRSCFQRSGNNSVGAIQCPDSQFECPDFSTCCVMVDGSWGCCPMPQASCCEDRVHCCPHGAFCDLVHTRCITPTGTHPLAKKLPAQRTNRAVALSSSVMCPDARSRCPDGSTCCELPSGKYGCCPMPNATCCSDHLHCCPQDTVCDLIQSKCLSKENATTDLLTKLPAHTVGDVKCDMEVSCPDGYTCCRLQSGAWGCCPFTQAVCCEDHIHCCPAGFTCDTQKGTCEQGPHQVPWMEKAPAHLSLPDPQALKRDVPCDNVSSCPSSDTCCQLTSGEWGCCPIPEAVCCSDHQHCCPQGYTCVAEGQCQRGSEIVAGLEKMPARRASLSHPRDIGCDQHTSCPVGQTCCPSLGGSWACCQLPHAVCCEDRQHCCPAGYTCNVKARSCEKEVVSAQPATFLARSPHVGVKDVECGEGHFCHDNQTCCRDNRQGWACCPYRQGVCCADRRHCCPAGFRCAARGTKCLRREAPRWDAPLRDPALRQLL
# UniProt P10768, sequence (P10768 whole entry): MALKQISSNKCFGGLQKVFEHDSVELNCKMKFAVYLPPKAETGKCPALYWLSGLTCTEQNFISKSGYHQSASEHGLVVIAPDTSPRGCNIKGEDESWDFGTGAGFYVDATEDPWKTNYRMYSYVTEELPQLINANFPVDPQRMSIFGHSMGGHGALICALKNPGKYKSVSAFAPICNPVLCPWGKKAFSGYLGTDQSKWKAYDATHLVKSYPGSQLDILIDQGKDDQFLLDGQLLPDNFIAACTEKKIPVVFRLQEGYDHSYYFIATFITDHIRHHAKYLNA
# UniProt Q8TCG2, sequence (Q8TCG2 whole entry): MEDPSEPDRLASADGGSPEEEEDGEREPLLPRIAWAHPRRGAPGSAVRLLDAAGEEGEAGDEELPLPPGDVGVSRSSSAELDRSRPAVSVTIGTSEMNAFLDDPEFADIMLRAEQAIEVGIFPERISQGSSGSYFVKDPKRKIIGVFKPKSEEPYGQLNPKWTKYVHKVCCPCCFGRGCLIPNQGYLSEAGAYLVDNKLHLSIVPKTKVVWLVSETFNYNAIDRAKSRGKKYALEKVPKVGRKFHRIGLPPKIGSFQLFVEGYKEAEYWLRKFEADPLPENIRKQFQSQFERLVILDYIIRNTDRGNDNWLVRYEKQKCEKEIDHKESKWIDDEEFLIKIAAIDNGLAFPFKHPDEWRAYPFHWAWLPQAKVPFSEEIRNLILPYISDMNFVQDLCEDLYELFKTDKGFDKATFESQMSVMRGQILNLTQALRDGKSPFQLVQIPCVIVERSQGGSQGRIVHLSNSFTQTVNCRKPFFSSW
# UniProt Q9Y2W2, sequence (Q9Y2W2 whole entry): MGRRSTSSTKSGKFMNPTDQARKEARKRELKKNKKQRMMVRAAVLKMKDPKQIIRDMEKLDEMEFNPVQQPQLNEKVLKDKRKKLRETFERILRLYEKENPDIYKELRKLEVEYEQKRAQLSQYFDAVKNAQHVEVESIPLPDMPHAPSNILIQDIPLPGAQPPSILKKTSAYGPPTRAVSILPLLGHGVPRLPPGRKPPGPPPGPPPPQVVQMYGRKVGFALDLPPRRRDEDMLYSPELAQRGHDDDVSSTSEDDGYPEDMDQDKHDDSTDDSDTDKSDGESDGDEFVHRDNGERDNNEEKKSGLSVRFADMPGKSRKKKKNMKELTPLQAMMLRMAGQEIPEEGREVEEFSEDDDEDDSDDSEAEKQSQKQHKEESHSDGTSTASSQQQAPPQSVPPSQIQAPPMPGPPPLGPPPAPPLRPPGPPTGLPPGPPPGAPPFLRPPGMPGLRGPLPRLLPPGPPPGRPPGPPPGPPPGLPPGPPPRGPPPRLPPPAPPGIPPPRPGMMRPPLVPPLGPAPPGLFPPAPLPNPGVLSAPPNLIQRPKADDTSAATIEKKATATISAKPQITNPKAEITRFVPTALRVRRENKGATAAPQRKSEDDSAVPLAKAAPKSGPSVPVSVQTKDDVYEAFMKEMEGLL
# UniProt Q9UHA4, sequence (Q9UHA4 whole entry): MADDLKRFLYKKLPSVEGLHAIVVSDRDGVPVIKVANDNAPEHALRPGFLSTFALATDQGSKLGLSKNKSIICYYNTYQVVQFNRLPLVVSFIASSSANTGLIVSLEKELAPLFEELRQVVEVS
Target,thermal stability z-score (lipoamide; [1]),thermal stability z-score (lipoamide; arsenate co-treatment: none),thermal stability z-score (potassium arsenate)
PRMT3 (UniProt O60678),-0.336,0.22,-0.148
UBTF (UniProt P17480),0.142,0.184,0.532
BBX (UniProt Q8WY36),-0.177,-0.12,-0.402
TRAP1 (UniProt Q12931),-1.2,0.188,-0.477
MRPS30 (UniProt Q9NP92),-0.185,-0.539,-0.147
MTUS1 (UniProt Q9ULD2),-0.0967,0.692,0.0626
LAMTOR3 (UniProt Q9UHA4),1.21,0.41,-0.713
PCLO (UniProt Q9Y6V0),0.448,0.235,-0.0814
TWISTNB (UniProt Q3B726),-0.926,0.0342,-1.57
S100P (UniProt P25815),0.367,-0.088,0.0845
ZDHHC13 (UniProt Q8IUH4),0.0485,-0.0918,0.144
VWA8 (UniProt A3KMH1),-0.654,-0.345,-0.561
PDXK (UniProt O00764),-0.427,-0.245,-0.829
EPB41L2 (UniProt O43491),-0.283,-0.0411,0.128
PI4K2B (UniProt Q8TCG2),-0.541,0.209,-0.451
RPL29 (UniProt P47914),0.301,-0.146,-0.918
PODXL (UniProt O00592),0.0978,0.132,0.395
POLE3 (UniProt Q9NRF9),-0.405,-0.285,0.375
PIP4K2B (UniProt P78356),0.0141,0.0907,0.0439
COX5A (UniProt P20674),2.24,1.82,1.36
SRP14 (UniProt P37108),-0.152,-0.0661,-0.436
LRWD1 (UniProt Q9UFC0),-0.0805,-0.0419,-0.324
UBXN6 (UniProt Q9BZV1),-0.186,-0.134,-0.12
TIMP2 (UniProt P16035),-0.833,-0.411,0.923

Target,thermal stability z-score (lipoamide; [1]),thermal stability z-score (lipoamide; arsenate co-treatment: none),thermal stability z-score (potassium arsenate)
IGF2BP2 (UniProt Q9Y6M1),-0.00758,0.044,-0.165
MRPS14 (UniProt O60783),-0.722,-0.574,-0.644
CFAP36 (UniProt Q96G28),0.177,0.267,0.177
YARS (UniProt P54577),0.161,0.213,2.64
ESD (UniProt P10768),-0.53,-0.395,0.445
KANK2 (UniProt Q63ZY3),-0.0369,0.0732,-0.109
EXOC3 (UniProt O60645),-0.653,-0.0663,0.149
TMEM131 (UniProt Q92545),-1.03,0.061,0.83
ABCB6 (UniProt Q9NP58),-0.585,-0.323,-0.252
XPO5 (UniProt Q9HAV4),-0.576,-0.108,-0.103
AJUBA (UniProt Q96IF1),-0.32,-0.207,-0.562
GRN (UniProt P28799),0.151,-0.477,0.505
RAB5A (UniProt P20339),-0.751,-0.744,-0.695
CYTH1 (UniProt Q15438),-0.178,0.00951,0.0222
P4HA2 (UniProt O15460),-3.73,-3.49,0.573
SCAF11 (UniProt Q99590),1.24,0.982,-1.02
GDI2 (UniProt P50395),0.452,0.275,-0.47
FBXO28 (UniProt Q9NVF7),0.0993,-0.125,-0.115
RABL3 (UniProt Q5HYI8),-0.437,-0.307,-0.0747
MAP4K5 (UniProt Q9Y4K4),-0.212,0.00139,0.00285
PAPOLA (UniProt P51003),-0.22,-0.103,-0.119
PTPRK (UniProt Q15262),-1.17,-0.25,0.129
TMTC3 (UniProt Q6ZXV5),-1.23,-0.796,0.605
RAD50 (UniProt Q92878),0.0652,-0.163,-0.768

Target,thermal stability z-score (lipoamide; [1]),thermal stability z-score (lipoamide; arsenate co-treatment: none),thermal stability z-score (potassium arsenate)
ASMTL (UniProt O95671),1.09,1.31,-0.959
NANP (UniProt Q8TBE9),0.191,0.0578,-0.582
ASCC2 (UniProt Q9H1I8),-0.0905,0.388,1.51
RBM39 (UniProt Q14498),-0.398,0.0967,-0.546
THOC2 (UniProt Q8NI27),-0.212,-0.102,0.273
LARP4 (UniProt Q71RC2),-0.463,-0.301,-0.708
FDX1 (UniProt P10109),-0.234,-0.162,-0.0279
ZAK (UniProt Q9NYL2),-0.237,-0.237,-0.105
DNAJC11 (UniProt Q9NVH1),0.0767,-0.132,0.285
FSCN1 (UniProt Q16658),0.0281,-0.236,-1.09
UBR7 (UniProt Q8N806),-0.392,-0.575,0.457
HADHA (UniProt P40939),-0.0579,0.088,-0.331
POP7 (UniProt O75817),-0.211,0.214,0.592
LENG9 (UniProt Q96B70),-0.216,-0.193,-0.307
HSPE1 (UniProt P61604),1.5,0.918,0.112
HEATR1 (UniProt Q9H583),-1.73,-1.13,-0.114
DHX36 (UniProt Q9H2U1),-0.0301,-0.0965,-0.0639
FBXO45 (UniProt P0C2W1),0.369,0.292,0.229
CTSD (UniProt P07339),0.0179,-0.0567,-0.598
WBP11 (UniProt Q9Y2W2),0.102,0.283,0.254
PTS (UniProt Q03393),0.382,-0.301,0.981
CHAF1B (UniProt Q13112),1.3,1.08,1.29
MOB1B|MOB1A,1.02,0.33,0.896

# From the supplement of paper PMC12463676, “Small-molecule dissolution of stress granules by redox modulation benefits ALS models” (Nature Chemical Biology, 2025)
